Experimental data from patent US20090143279A1 (priority 2007, published 2009).
Read-outs that look alike come from different tables or passages of the source.

Key:
reactive oxygen species = format: cell-based, mouse; settings: for ROS levels: primary screen, in words
OXPHOS gene expression = format: cell-based, mouse; settings: for OXPHOS expression: primary screen, in words
microtubules = experiment: Tubulin immunofluorescence; format: cell-based, mouse; settings: C2C12 myotubes, 48 hours, 10 nM to 10 μM, FIG. 7
Experimental: Tubulin immunofluorescence. […] Cells were washed once in 50 μl PBSTB2 (PBS with 0.1% (vol/vol) Tween-20 and 2% (wt/vol) BSA) and blocked in PBSTB2 for 1 h at room temperature or overnight at 4° C. Cells were incubated with an anti-α-tubulin (Sigma-Aldrich) antibody, 1:1,000 in PBSTB2, for 1 h at room temperature, and then washed three times with PBSTB2. […] Cells were visualized using an automated microscope (IX-Micro, Molecular Devices).

[1] = system: mitochondrial membrane potential; format: cell-based, mouse
nuOXPHOS transcripts = format: cell-based, mouse
mtOXPHOS transcripts = format: cell-based, mouse
cytochrome c = format: cell-based, mouse
Ppargc1a = experiment: Quantitative PCR of Ppargc1a expression; format: cell-based, mouse; settings: 5 μM deoxysappanone B or 1 μM mebendazole, FIG. 6c
Experimental: (§1) (a) Compounds indicated in FIG. 4 were retested at 20 nM, 200 nM, 2 μM and 20 μM. Gene expression levels are represented as a row-normalized heat map, with negative controls (DMSO treatment) and positive controls (PGC-1α treatment) shown. Dose-response curves for ROS levels and viability are also provided, where the y-axis is the composite Z-score. Shaded area indicates the noise envelope (P<0.05). Data shown are the results of four biological replicates per concentration. […] (c) Quantitative PCR measurement of Ppargc1a gene expression, in response to either DMSO alone (Con), 5 μM deoxysappanone B (deo) or 1 μM mebendazole (meb). (d) Quantitative PCR measurement of the nuclear OXPHOS gene Atp5a1. Cells were either treated with compound alone (black bars) or in combination with […] of the ERRa inverse agonist XCT790 (gray bars). (e) Quantitative PCR measurement of Sod2, which encodes the ROS scavenger MnSOD, as in (d). Means and s.d. of expression data are the result of four biological replicates.
(§2) Gene expression. […]. The cDNA was then used for real-time PCR quantification of products for mouse Atp5a1 (Mm00431960_ml), Sod2 (MnSOD; Mm01313000_m1) and Ppargc1a (Mm00447183_m1), with Hprt1 (Mm03024075_m1) serving as an internal control, using TaqMan gene-expression assays (Applied Biosystems).

Atp5a1 = experiment: Quantitative PCR of Atp5a1 (nuOXPHOS) expression; format: cell-based, mouse; settings: compound alone, FIG. 6d
Experimental: as §1
FIG. 8 show measurements of the coupling between nuclear and mitochondrial OXPHOS gene expression. (a) A two-dimensional plot of the composite Z-scores for nuOXPHOS and mtOXPHOS expression is shown. (b) Row-normalized heat map displaying the top 15 compounds in each quadrant (I-IV). Heat map of nuOXPHOS and mtOXPHOS expression is shown along with ATP levels. (c) Real-time PCR validation of select compounds at the indicated doses, using Atp5a1 (nuOXPHOS) and mt-Co1 (mtOXPHOS) normalized to Hprt1 (internal control). Values indicate average fold change from mock-treated (DMSO) wells ±s.d. in four biological replicates.
as §2

[2] = system: cellular dehydrogenase activity
[3] = Table 3, differentiated C2C12 myotubes, 48 h treatment, composite Z-score vs DMSO
[4] = retest at 20 nM to 20 μM, FIG. 6a
[5] = 13.54 μM, composite Z-score vs DMSO
[6] = 20 μM, composite Z-score vs DMSO
[7] = composite Z-score vs DMSO, Conc 20 μM
[8] = normalized composite Z-score vs mock-treated (DMSO) wells, Conc 20 μM
[9] = composite Z-score vs DMSO wells, Conc 20 μM
[10] = Table 5, C2C12 myotubes, 48 h, composite Z-score

`CC(=O)O[C@H]1C(=O)[C@@]2(C)[C@H]([C@H](OC(=O)c3ccccc3)[C@]3(O)C[C@H](OC(=O)[C@H](O)[C@@H](NC(=O)c4ccccc4)c4ccccc4)C(C)=C1C3(C)C)[C@]1(OC(C)=O)CO[C@@H]1C[C@@H]2O` [paclitaxel, reference compound] was tested, and the “ROS Zscore” value (reactive oxygen species; [3]) was −1.967, the ROS levels (reactive oxygen species) was “suppressing ROS levels” and the “dose showing effect on ROS level” value (reactive oxygen species; [4]) was 20 nM. For the same compound, the GEHTS_Zscore (OXPHOS gene expression; [3]) was 2.451, the OXPHOS expression (OXPHOS gene expression) was “boost OXPHOS expression” and the “dose showing effect on OXPHOS expression” value (OXPHOS gene expression; [4]) was 20 nM. The “potency required for microtubule disruption” value (microtubules) was “the same as that required to affect OXPHOS expression and ROS level”.

In the case of `COC(=O)Nc1nc2ccc(C(=O)c3ccccc3)cc2[nH]1` [mebendazole, methyl[5-benzoyl-benzimidazol-2-carbamate], reference compound], the ΔΨm [1, 5] is reported as −0.054, the ΔΨm [1, 6] is reported as −0.434 and the ROS (reactive oxygen species; [5]) is reported as −0.791. The ROS (reactive oxygen species; [6]) was −1.003, the “ROS Zscore” value (reactive oxygen species; [3]) was −1.003 and the ROS levels (reactive oxygen species) was “suppressing ROS levels”. The “dose at which ROS levels decreased” value (reactive oxygen species; [4]) was 2 µM, the GE-HTS (OXPHOS gene expression; [5]) was 0.013 and the GE-HTS (OXPHOS gene expression; [6]) was 1.160. The GEHTS_Zscore (OXPHOS gene expression; [3]) was 2.846, the OXPHOS expression (OXPHOS gene expression) was “boost OXPHOS expression” and the “dose at which OXPHOS expression increased” value (OXPHOS gene expression; [4]) was 2 µM. The nucOX (nuOXPHOS transcripts; [5]) was −0.200, the nucOX (nuOXPHOS transcripts; [6]) was 1.212 and the mitoOX (mtOXPHOS transcripts; [5]) was 0.398. It also gave a mitoOX (mtOXPHOS transcripts; [6]) of 0.824, a cyt c (cytochrome c; [5]) of −0.685 and a cyt c (cytochrome c; [6]) of −1.473. For the same compound, the “expression of Ppargc1α” value (Ppargc1a) was “approximately threefold”, the “increase of Atp5a1 expression” value (Atp5a1) was 20% and the Viability (C2C12 myotubes; [5]) was 0.064. It also gave a Viability (C2C12 myotubes; [6]) of 0.512, an MTT [2, 5] of −2.797 and an MTT [2, 6] of −2.060.

`Oc1cc(O)c2c(c1)O[C@H](c1ccc(O)c(O)c1)[C@H](O)C2` [epicatechin, reference compound] showed a ΔΨm [1, 7] of −2.452, a ΔΨm [1, 8] of −1.802 and an ROS (reactive oxygen species; [7]) of −0.465. It also gave an ROS (reactive oxygen species; [8]) of −0.199, a GE-HTS (OXPHOS gene expression; [7]) of 0.431 and a GE-HTS (OXPHOS gene expression; [8]) of −0.754. The nucOX (nuOXPHOS transcripts; [7]) was 0.310, the nucOX (nuOXPHOS transcripts; [8]) was −0.773 and the mitoOX (mtOXPHOS transcripts; [7]) was 0.641. It also gave a mitoOX (mtOXPHOS transcripts; [8]) of −0.631, a cyt c (cytochrome c) of 0.446 and a cyt c (cytochrome c; [7]) of 0.110. The cyt c (cytochrome c; [8]) was 0.850, the Viability (C2C12 myotubes; [7]) was −1.380 and the Viability (C2C12 myotubes; [8]) was 0.687. The MTT [2, 7] was −1.915 and the MTT [2, 8] was −1.556.

With `OC[C@H]1O[C@@H](n2cnc3c(NCc4ccco4)ncnc32)[C@H](O)[C@@H]1O` [kinetin riboside] the ΔΨm [1, 7] was −1.350, the ROS (reactive oxygen species; [7]) was −2.722 and the GE-HTS (OXPHOS gene expression; [7]) was 0.882. It also gave a nucOX (nuOXPHOS transcripts; [7]) of 0.853, a mitoOX (mtOXPHOS transcripts; [7]) of 0.750 and a cyt c (cytochrome c; [7]) of −2.612. It also gave a Viability (C2C12 myotubes; [7]) of −1.883 and an MTT [2, 7] of −4.309.

In the case of `O=C1C(O)=C(O)C(=O)C(O)=C1O` [tetroquinone], the ΔΨm [1, 9] is reported as −0.424, the ROS (reactive oxygen species; [9]) is reported as 0.638 and the GE-HTS (OXPHOS gene expression; [9]) is reported as 0.067. The nucOX (nuOXPHOS transcripts; [9]) was 0.028, the mitoOX (mtOXPHOS transcripts; [9]) was 0.112 and the cyt c (cytochrome c; [9]) was 0.386. For the same compound, the Viability (C2C12 myotubes; [9]) was 0.088 and the MTT [2, 9] was −0.574.

With `COc1cc([C@@H]2c3cc4c(cc3[C@H](O)[C@H]3COC(=O)[C@@H]23)OCO4)cc(OC)c1OC` [picropodophyllotoxin, reference compound] the ΔΨm [1, 7] was −0.349, the “ROS Zscore” value (reactive oxygen species; [10]) was −1.202 and the ROS (reactive oxygen species; [7]) was −1.202. For the same compound, the GEHTS_Zscore (OXPHOS gene expression; [10]) was 2.259, the GE-HTS (OXPHOS gene expression; [7]) was 1.512 and the nucOX (nuOXPHOS transcripts; [7]) was 1.581. For the same compound, the mitoOX (mtOXPHOS transcripts; [7]) was 1.129, the cyt c (cytochrome c; [7]) was −1.445 and the Viability (C2C12 myotubes; [7]) was −0.107. The MTT [2, 7] was −2.402.

For `C=C1CCC(C2CC(=O)OC2=O)C(=O)CCC2C1CC2(C)C` (centres unmarked), the ΔΨm [1, 8] was −0.249, the ROS (reactive oxygen species; [8]) was 0.012 and the GE-HTS (OXPHOS gene expression; [8]) was −1.109. It also gave a nucOX (nuOXPHOS transcripts; [8]) of −1.009, a mitoOX (mtOXPHOS transcripts; [8]) of −1.046 and a cyt c (cytochrome c; [8]) of 0.345. For the same compound, the Viability (C2C12 myotubes; [8]) was −0.749 and the MTT [2, 8] was −0.968.

In the case of `CC1=CC(=O)CC(C)(C)[C@@]1(O)/C=C/C(C)=C\C(=O)O` [abscisic acid], the ΔΨm [1, 8] is reported as −0.565, the ROS (reactive oxygen species; [8]) is reported as −0.476 and the GE-HTS (OXPHOS gene expression; [8]) is reported as 0.469. It also gave a nucOX (nuOXPHOS transcripts; [8]) of 0.509, a mitoOX (mtOXPHOS transcripts; [8]) of 0.299 and a cyt c (cytochrome c; [8]) of 0.179. The Viability (C2C12 myotubes; [8]) was 0.309 and the MTT [2, 8] was −1.053.

`CC(=O)c1ccc(O)c(CC=C(C)C)c1` [3-prenyl-4-hydroxyacetophenone] was tested, and the ΔΨm [1, 7] was −0.010, the ROS (reactive oxygen species; [7]) was 2.418 and the GE-HTS (OXPHOS gene expression; [7]) was 0.607. It also gave a nucOX (nuOXPHOS transcripts; [7]) of 0.477, a mitoOX (mtOXPHOS transcripts; [7]) of 0.804 and a cyt c (cytochrome c; [7]) of 0.220. It also gave a Viability (C2C12 myotubes; [7]) of −0.696 and an MTT [2, 7] of −1.066.
